The results in this text go back to ChEMBL document CHEMBL4219048, “Identification of cytotoxic, glutathione-reactive moieties inducing accumulation of reactive oxygen species via glutathione depletion” (Bioorg Med Chem, 2018).

Data set [1] relates to HeLa. Nature of the data set: Induction of GSH depletion in human HeLa cells at 0.1 to 100 uM after 1 hr by GSH/GSSG-glo assay relative to control. The format is functional, cell-based.
The subject of data set [2] is U2OS. Nature of the data set: Induction of ROS levels in human U2OS cells at 10 uM after 30 mins by CM-H2DCFDA/Hoechst-based fluorescence microscopic analysis relative to 10 uM CDNB. The format is functional.
In data set [3] the test system is U2OS. Briefly: Induction of GSH depletion in human U2OS cells assessed as GSH content at 10 uM by GSH/GSSG-Glo assay relative to DMSO. Type of data set: functional.
In data set [4] the test system is HeLa. Briefly: Induction of ROS induced cytotoxicity in human HeLa cells at 5 uM administered after 1 hr pretreatment with NAC incubated for 24 hrs measured at 2 hrs interval by propidium iodide staining based real time live cell imaging analysis. Type of data set: functional.
The nature of data set [5]: GSH reactivity in PBS buffer assessed as retention time for compound-GSH conjugate formation at 100 uM after 1 hr in presence of GSH by UHPLC/ESI-MS method. Type of data set: physicochemical.
Data set [6] has as its system HeLa. Briefly: Induction of GSH depletion in human HeLa cells at 5 uM after 1 hr by Ellman's reagent based assay. Type of data set: functional.
Data set [7] has as its system HeLa. Briefly: Induction of ROS induced cytotoxicity in human HeLa cells assessed as reduction in cell viability at 5 uM incubated for 24 hrs measured at 2 hrs interval by propidium iodide-staining based real time live cell imaging analysis. Type of data set: functional.
The test system of data set [8] is HeLa. Briefly: Induction of ROS induced cytotoxicity in human HeLa cells at 2.5 uM incubated for 24 hrs in presence of BSO measured at 2 hrs interval by propidium iodide staining based real time live cell imaging analysis. Type of data set: functional.
For data set [9], the system named is HeLa. Briefly: Induction of ROS induced cytotoxicity in human HeLa cells assessed as morphological changes at 10 uM incubated for 24 hrs measured after 2 hrs by propidium iodide-staining based real time live cell imaging analysis. The format is functional.
For data set [10], the system named is HeLa. Briefly: Induction of GSH depletion in human HeLa cells at 10 uM after 1 hr by Ellman's reagent based assay. The format is functional. A general note: DTNB colorimetry detects thiols as they appear.
A short description of data set [11]: GSH reactivity in PBS buffer assessed as compound-GSH conjugate formation at 100 uM after 1 hr in presence of GSH by UHPLC/ESI-MS method. Type of data set: physicochemical.
For data set [12], the system named is HeLa. Nature of the data set: Induction of ROS levels in human HeLa cells at 10 uM after 1 hr by CM-H2DCFDA/Hoechst-based fluorescence microscopic analysis relative to 10 uM CDNB. Type of data set: functional.
For data set [13], the system named is HeLa. Briefly: Induction of GSH depletion in human HeLa cells after 1 hr by GSH/GSSG-glo assay relative to control. The format is functional, cell-based.
The test system of data set [14] is HeLa. Briefly: Induction of ROS induced cytotoxicity in human HeLa cells at 10 uM administered after 1 hr pretreatment with NAC incubated for 24 hrs measured at 2 hrs interval by propidium iodide staining based real time live cell imaging analysis. Type of data set: functional.
Data set [15] deals with HeLa. Briefly: Induction of ROS induced cytotoxicity in human HeLa cells at 5 uM incubated for 24 hrs in presence of BSO measured at 2 hrs interval by propidium iodide staining based real time live cell imaging analysis. The format is functional.
The test system of data set [16] is HeLa. Briefly: Induction of ROS induced cytotoxicity in human HeLa cells assessed as reduction in cell viability at 2.5 to 20 uM incubated for 24 hrs measured at 2 hrs interval by propidium iodide-staining based live cell imaging analysis. The format is functional.
For data set [17], the system named is HeLa. Nature of the data set: Induction of ROS induced cytotoxicity in human HeLa cells assessed as reduction in cell viability at 10 uM incubated for 24 hrs measured at 2 hrs interval by propidium iodide-staining based real time live cell imaging analysis. The format is functional.
Data set [18] relates to HeLa. Briefly: Induction of GSH depletion in human HeLa cells at 20 uM after 1 hr by Ellman's reagent based assay. Type of data set: functional.

Calls of active or inactive are those of the source. The calls are words filed in the database; no cut-off is given here.

Regarding `O=C(Cn1ncc(Br)c(Br)c1=O)C12CC3CC(CC(C3)C1)C2`, the outcome in the data set with HeLa [1] was Active. Further, the Activity is 88% in the data set on U2OS [2] and 13.2% in the data set with U2OS [3].

For the compound `CCN(CC)C(=O)c1cccc(NS(=O)(=O)c2ccc(-n3ncc(Cl)c(Cl)c3=O)cc2)c1`, the outcome in the data set with HeLa [1] was Active. Moreover, the Activity in the data set with U2OS [2] came to 98%; with U2OS [3], 30.8%.

Regarding `CN(C(=O)Cn1ncc(Br)c(Br)c1=O)C1CCCc2ccccc21` (configuration not stated), the result in the data set on HeLa [1], with HeLa [7], in the data set with HeLa [8] and in the data set on HeLa [9] was Active. Besides, the outcome in the data set on HeLa [4] was inactive. In addition, the Activity is on record as 60% with U2OS [2]; 23.1% in the data set with HeLa [6]; 9.56% in the data set on U2OS [3]; 38% in the data set on HeLa [10]; “Active” in [11]; 63.96% in the data set on HeLa [12]. In addition, in [5], the Retention_time was 3.41 min.

As to `COc1ccc(OC)c(NC(=O)c2c(Cl)nc(Cl)c(Cl)c2Cl)c1`, the Activity entry in the data set on HeLa [13] was “Dose-dependent effect”; with U2OS [2] it was 69%; in the data set with U2OS [3] it was 39.27%; in data set [11], “Active”; in the data set with HeLa [12], 73.78%. The result in the data set with HeLa [1], in the data set on HeLa [14] and in the data set with HeLa [10] was inactive. The Retention_time in [5] was found to be 3.48 min. In addition, the outcome with HeLa [7], with HeLa [9] and with HeLa [15] was Active.

In the case of `COc1ccc(N(C)C(=O)c2nc(Cl)c(Cl)c(Cl)c2Cl)cc1OC`, in the data set with HeLa [1], the outcome was Active.

`COc1cccc(CNC(=O)COC(=O)c2nc(Cl)c(Cl)c(Cl)c2Cl)c1`: the outcome in the data set on HeLa [1], in the data set with HeLa [10] and in the data set with HeLa [16] was inactive. For the same compound, the Activity entry in data set [11] is recorded as “Active”; with HeLa [12], 12.14%.

In the case of `CCOC(=O)C1CCN(C(=O)Cn2ncc(Cl)c(Cl)c2=O)CC1`, the Activity in the data set with U2OS [2] turned out to be 95%; in the data set with U2OS [3] it was 35.47%.

On to `Cc1cccc(CS(=O)(=O)c2ncc(Cl)c(C(=O)Nc3nc4ccc(C)cc4s3)n2)c1`, for which the results for the Activity in the data set on U2OS [2] and with U2OS [3] were 106% and 37.21%, respectively.

As to `CCCS(=O)(=O)c1ncc(Cl)c(C(=O)Nc2nc(C)c(C(=O)OCC(C)C)s2)n1`, the Activity with U2OS [2] amounted to 130%; with U2OS [3], 23.2%.

For the compound `O=C(CN1CCCC1c1ccc2c(c1)OCCO2)Cn1ncc(Cl)c(Cl)c1=O` (configuration not stated), the values for the Activity in the data set on U2OS [2] and in the data set on U2OS [3] were 163% and 19.2%, respectively.

With `CC(C)N(C(=O)Cn1ncc(Br)c(Br)c1=O)c1ccccc1`, in the data set with HeLa [1], the result was Active. For the same compound, the values for the Activity in the data set with U2OS [2] and in the data set with U2OS [3] were 67% and 20.43%, respectively.

As to `O=C1CC(c2cccc3ccccc23)CC1=O`, the values for the Activity with U2OS [2] and in the data set with U2OS [3] were 110% and 24.43%, respectively.

For `O=C(NCc1ccc(Cl)cc1)c1c(Cl)nc(Cl)c(Cl)c1Cl`, the outcome with HeLa [1] was Active. The Activity with U2OS [2] amounted to 87%; in the data set on U2OS [3], 30.39%.

In the case of `CCS(=O)(=O)c1ncc(Cl)c(C(=O)Nc2ccc(-c3nc4ccc(C)cc4s3)cc2)n1`, the Activity in the data set with U2OS [2] came to 127%; in the data set on U2OS [3], 37.49%.

Take `COCCOc1ccc(CNC(=O)c2nc(Cl)c(Cl)c(Cl)c2Cl)cc1`: in the data set with HeLa [1], the outcome was Active.

In the case of `Cc1nnc(NC(=O)c2nc(S(=O)(=O)Cc3ccccc3)ncc2Cl)s1`, the Activity in the data set on U2OS [2] is 92%; in the data set on U2OS [3], 34.32%.

In the case of `O=C(Nc1ccccc1Br)c1c(Cl)nc(Cl)c(Cl)c1Cl`, the result with HeLa [1] was Active. Also, the Activity in the data set with U2OS [2] was 91%; with U2OS [3] it was 36.07%.

For the compound `CC(=O)c1c(C)[nH]c(C(=O)Cn2ncc(Cl)c(Cl)c2=O)c1C`, the result in the data set on HeLa [1] was Active. In addition, the Activity in the data set with U2OS [2] is given as 100%; with U2OS [3], 32.83%.

As to `CC(=O)c1ccc(N2CCN(C(=O)Cn3ncc(Cl)c(Cl)c3=O)CC2)c(F)c1`, the outcome in the data set on HeLa [1] was Active. Moreover, the Activity with U2OS [2] was found to be 113%; with U2OS [3] it was 30.95%.

For `O=c1c(Cl)c(Cl)cnn1-c1ccc(S(=O)(=O)NCc2cc(-c3ccccc3)no2)cc1`, the figures for the Activity in the data set with U2OS [2] and in the data set with U2OS [3] were 129% and 24.31%, respectively.

`CCCNC(=O)c1c(Cl)nc(Cl)c(Cl)c1Cl`: the result in the data set with HeLa [1] was Active.

As for `Cc1cccc(NC(=O)c2nc(Cl)c(Cl)c(Cl)c2Cl)c1C`, the outcome in the data set with HeLa [1] was Active.

In the case of `NC(=O)C1CCN(C(=O)c2nc(Cl)c(Cl)c(Cl)c2Cl)CC1`, the result in the data set with HeLa [17], with HeLa [1] and in the data set on HeLa [10] was Active. The Activity is recorded as 55% in the data set on U2OS [2], 24.15% in the data set with U2OS [3], “Active” in [11] and 98.33% with HeLa [12].

Turning to `O=c1cc(Cn2ncc(Cl)c(Cl)c2=O)[nH]c(=O)[nH]1`, the result in the data set with HeLa [1] was Active. Moreover, the values for the Activity (in the data set on HeLa [18]; in [11]; in the data set with HeLa [12]) were 21.3%, “Active” and 9.73%, respectively. The outcome in the data set on HeLa [10] and in the data set with HeLa [16] was inactive.

Take `Clc1ncnc2c1oc1ccccc12`: the Activity with U2OS [2] amounted to 116%; in the data set on U2OS [3] it was 25.49%.

Consider `O=C(Cn1ncc(Cl)c(Cl)c1=O)N(Cc1ccco1)CC(F)(F)F`, for which the Activity with U2OS [2] was determined as 75%; in the data set with U2OS [3], 35.84%.

`O=C(Cn1ncc(Cl)c(Cl)c1=O)N(C1=CCCCC1)C1CC1`: the Activity was 70% in the data set on U2OS [2] and 38.9% in the data set with U2OS [3].

On to `CCCS(=O)(=O)c1ncc(Cl)c(C(=O)Nc2nc3ccc(F)cc3s2)n1`, for which the Activity amounted to 97% in the data set on U2OS [2] and 11.22% in the data set on U2OS [3].

Take `CC(NC(=O)Cn1ncc(Cl)c(Cl)c1=O)c1ccc(F)cc1` (configuration not stated): the Activity in the data set with U2OS [2] was found to be 79%; with U2OS [3], 22.59%.

As to `N#Cc1c(Cl)nc(N2CCOCC2)c(Cl)c1Cl`, the Activity with U2OS [2] came to 82%; in the data set with U2OS [3], 22.32%.

On to `O=c1c(Cl)c(Cl)cnn1Cc1nc2ccccc2n1C(F)F`, for which the Activity with U2OS [2] is listed as 111%; with U2OS [3], 31.86%.

Take `COc1ccc2c(c1)CCCN2S(=O)(=O)c1ccc(-n2ncc(Cl)c(Cl)c2=O)cc1`: the figures for the Activity with U2OS [2] and with U2OS [3] were 52% and 29.49%, respectively.

With `O=C(Cn1ncc(Cl)c(Cl)c1=O)N1CCCC1c1ccc2c(c1)OCCO2` (configuration not stated), the outcome in the data set on HeLa [17], in the data set on HeLa [1], in the data set with HeLa [9] and with HeLa [10] was Active. For the same compound, the Activity entry in data set [11] is on record as “Active”; in the data set on HeLa [12], 78.23%.

As for `O=[N+]([O-])c1ccc(Cl)c([N+](=O)[O-])c1`, the outcome in the data set on HeLa [10] was Active.

Consider `COc1ccc2nc(NC(=O)c3nc(S(C)(=O)=O)ncc3Cl)sc2c1`, for which the figures for the Activity in the data set on U2OS [2] and with U2OS [3] were 107% and 30.72%, respectively.

On to `O=C(c1c(Cl)nc(Cl)c(Cl)c1Cl)N1CCOCC1`, for which, in the data set on HeLa [1], the outcome was Active.

For `O=c1c(Br)c(Br)cnn1CC(O)COc1cccc(Br)c1` (configuration not stated), the outcome in the data set on HeLa [1] was Active.

With `O=c1c(Br)c(Br)cnn1Cc1ccccc1`, the outcome in the data set on HeLa [1] was Active. The Activity with U2OS [2] was determined as 77%; with U2OS [3], 37.49%.

Turning to `O=C(Cn1ncc(Cl)c(Cl)c1=O)N1CCc2cc(S(=O)(=O)N3CCCCC3)ccc21`, the figures for the Activity in the data set on U2OS [2] and in the data set on U2OS [3] were 104% and 35.26%, respectively.

Regarding `CCS(=O)(=O)c1ncc(Cl)c(C(=O)Nc2c(C(=O)Nc3ccccc3)oc3ccccc23)n1`, the Activity in the data set on U2OS [2] is on record as 83%; in the data set with U2OS [3], 39.62%.
